From paper PMC7004140, “In vitro hepatotoxicity of Petasites hybridus extract (Ze 339) depends on the concentration, the cytochrome activity of the cell system, and the species used” (Phytotherapy Research, 2019)

How the values were obtained:
Format in all cases: in vitro ADME
Details in all cases: petasins 20 μM, 60 min
[1] = target: T1, CYP2C8 (human) (Homo sapiens, UniProt P10632); experiment: Metabolism by isolated human CYP2C8
T1 construct: purchased BD Gentest (Switzerland); host or cells: baculovirus expression system
T1 sequence (P10632 1-490): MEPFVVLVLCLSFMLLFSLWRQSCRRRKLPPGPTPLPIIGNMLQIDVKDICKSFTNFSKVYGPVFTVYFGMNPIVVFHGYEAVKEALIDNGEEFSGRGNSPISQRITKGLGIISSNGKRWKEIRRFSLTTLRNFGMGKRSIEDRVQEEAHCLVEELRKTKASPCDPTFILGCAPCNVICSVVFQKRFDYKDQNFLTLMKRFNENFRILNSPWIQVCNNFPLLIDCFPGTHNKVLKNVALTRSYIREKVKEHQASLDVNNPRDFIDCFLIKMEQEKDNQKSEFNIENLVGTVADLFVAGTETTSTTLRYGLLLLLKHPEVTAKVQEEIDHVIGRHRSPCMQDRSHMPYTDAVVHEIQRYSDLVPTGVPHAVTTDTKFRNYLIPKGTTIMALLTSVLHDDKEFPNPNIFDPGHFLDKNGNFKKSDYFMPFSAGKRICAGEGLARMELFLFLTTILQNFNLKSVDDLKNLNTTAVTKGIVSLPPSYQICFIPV
Source text: (§1) The metabolism of petasin, isopetasin, and neopetasin was investigated using three different S9 fractions originating from three different species (isolated from rat, dog, and human liver homogenates containing cytochrome P450 isoforms) and isolated cytochromes of two different species (human and rat; rat analogues of the respective human cytochromes were used). For the expression of the different cytochromes, a baculovirus expression system was used according to supplier's manual. The S9 fractions or respectively single P450 cytochromes were used to mimic the liver metabolism by in vitro incubation.
(§2) The assay was carried out in triplicate in 1.5 ml glass vials with a final concentration of 20 μM of petasin, isopetasin, and neopetasin. The incubation was performed in a 37°C warm water bath. S9 fractions were thawed slowly on ice. Four different approaches were pursued by testing: (a) petasin, neopetasin, and isopetasin before (0 min) and after 60 min incubations with S9 fraction; (b) petasin, neopetasin, and isopetasin without S9 fraction after 60 min incubation; (c) vehicle as negative controls; and (d) cofactors of S9 fraction after 60‐min incubation.
(§3) A mixture of NADPH regeneration systems A (20‐fold) and B (100‐fold), phosphate buffer, and H2O was added, preincubated at 37°C, and shaken gently for 5 min. Afterwards, the recommended amount between 10 and 40 pmol/ml of enzyme or enzyme mixture was added according to manufacturer's instruction and incubated for further 60 min at 37°C and gently shaken. Afterwards, the reactions were stopped by addition of acetonitrile (400 μl). For the control sample, acetonitrile was added at 0 min incubation. The samples were centrifuged for 3 min at 10,000 × g. The supernatant was transferred to high‐performance liquid chromatography vials and analyzed by ultra‐performance liquid chromatography mass spectrometry (UPLC/MS). The UPLC analysis was performed with an UPLC Acquity H Class from Waters (Waters Corporation, Switzerland) including a quaternary high‐pressure gradient pump, an automatic sample injector, and a column thermostat. […]

[2] = target: T2, CYP2B6 (human) (Homo sapiens, UniProt P20813); experiment: Metabolism by isolated human CYP2B6
T2 construct: purchased BD Gentest (Switzerland); host or cells: baculovirus expression system
T2 sequence (P20813 1-491): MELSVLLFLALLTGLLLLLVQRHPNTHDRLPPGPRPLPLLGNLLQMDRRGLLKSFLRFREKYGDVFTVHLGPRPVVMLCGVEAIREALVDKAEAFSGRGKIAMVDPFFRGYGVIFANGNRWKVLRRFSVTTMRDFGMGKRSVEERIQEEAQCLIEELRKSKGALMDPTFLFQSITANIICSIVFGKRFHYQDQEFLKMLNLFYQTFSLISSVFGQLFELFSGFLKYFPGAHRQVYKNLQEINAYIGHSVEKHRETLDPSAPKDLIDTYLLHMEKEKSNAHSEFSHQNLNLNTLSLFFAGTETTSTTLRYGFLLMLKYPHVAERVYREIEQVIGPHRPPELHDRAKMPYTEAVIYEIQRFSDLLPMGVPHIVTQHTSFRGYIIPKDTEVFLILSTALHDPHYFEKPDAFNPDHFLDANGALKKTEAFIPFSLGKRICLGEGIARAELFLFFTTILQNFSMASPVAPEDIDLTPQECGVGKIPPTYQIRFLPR
Source text: as §1, §2, §3

[3] = target: T3, CYP3A1 (rat) (Rattus norvegicus, UniProt P04800); experiment: Metabolism by isolated rat CYP3A1
T3 construct: purchased BD Gentest (Switzerland); host or cells: baculovirus expression system
T3 sequence (P04800 1-504): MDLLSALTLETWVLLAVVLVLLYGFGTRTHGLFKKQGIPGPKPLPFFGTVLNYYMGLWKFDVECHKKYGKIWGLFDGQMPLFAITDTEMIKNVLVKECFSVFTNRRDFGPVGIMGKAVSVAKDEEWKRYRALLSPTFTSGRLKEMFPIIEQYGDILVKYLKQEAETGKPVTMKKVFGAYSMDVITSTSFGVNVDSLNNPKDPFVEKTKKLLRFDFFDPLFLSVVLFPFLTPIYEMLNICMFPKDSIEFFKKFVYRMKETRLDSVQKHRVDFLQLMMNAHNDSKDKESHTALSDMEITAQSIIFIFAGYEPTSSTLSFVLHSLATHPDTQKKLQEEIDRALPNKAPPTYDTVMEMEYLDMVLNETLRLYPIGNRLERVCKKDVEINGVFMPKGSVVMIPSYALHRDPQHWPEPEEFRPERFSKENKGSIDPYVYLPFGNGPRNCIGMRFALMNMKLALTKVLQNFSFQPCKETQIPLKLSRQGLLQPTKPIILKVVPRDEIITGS
Source text: as §1
The assay was carried out in triplicate in 1.5 ml glass vials with a final concentration of 20 μM of petasin, isopetasin, and neopetasin. The incubation was performed in a 37°C warm water bath. S9 fractions were thawed slowly on ice. […]
A mixture of NADPH regeneration systems A (20‐fold) and B (100‐fold), phosphate buffer, and H2O was added, preincubated at 37°C, and shaken gently for 5 min. […] The supernatant was transferred to high‐performance liquid chromatography vials and analyzed by ultra‐performance liquid chromatography mass spectrometry (UPLC/MS). […]

## C/C=C(/C)C(=O)O[C@@H]1CCC2=CC(=O)C(=C(C)C)C[C@]2(C)[C@H]1C [isopetasin]
[1]
  extent of metabolism by CYP2C8 (human): 44%
[2]
  extent of metabolism by CYP2B6 (human): 13%

## C=C(C)[C@H]1C[C@@]2(C)C(=CC1=O)CC[C@@H](OC(=O)/C(C)=C\C)[C@@H]2C [neopetasin]
[1]
  extent of metabolism by CYP2C8 (human): 71%
[3]
  extent of metabolism by CYP3A1 (rat): 78%
[2]
  extent of metabolism by CYP2B6 (human): 20%

## C=C(C)[C@@H]1C[C@@]2(C)C(=CC1=O)CC[C@@H](OC(=O)/C(C)=C\C)[C@@H]2C [petasin]
[1]
  extent of metabolism by CYP2C8 (human): 54%
[3]
  extent of metabolism by CYP3A1 (rat): 37%
[2]
  extent of metabolism by CYP2B6 (human): 50%
